We go through seven compounds from patent US7642287B2, “Statin pharmaceutical compositions and related methods of treatment” (Transform Pharmaceuticals, Inc., priority 2004, dated 2010).

Where “and” joins values, the source holds several entries; their conditions need not be identical. Equal entries are not always repeated. Structures can show the parent of a compound that is named as a salt. Where two headings read alike, the source gives them in different places.

Data set [1] in a line: Gravimetric solubility in deionized water at 23 degrees C. The data set is classed as physicochemical. To be noted: listed as calcium salt of fluvastatin. The procedure: Solubility measurements of the sodium salt and of the calcium salt of fluvastatin were acquired in water at 23 degrees C. Solubility was measured gravimetrically in deionized water.
Data set [2] is described as follows: Aqueous solubility via UV absorption. The note with it: water, via UV detection, 20-25 degrees C.
Description: The term “aqueous solubility” refers to the solubility as measured in deionized water at about 25 degrees C., unless otherwise specified.
A calibration curve was constructed by preparing known concentrations of API in absolute ethanol in volumetric flasks. At each concentration, 200 microliters of the solution was transferred into a 96-well clear bottom UV plate. The sample absorbance was measured at 280 nm (unless otherwise noted) in a UV spectrophotometer.
To measure the API concentration in the sample, a small aliquot was taken and diluted (typically 2000-fold) with absolute ethanol in a volumetric flask to a final approximate concentration of less than 100 micrograms/mL. The absorbance at 280 nm (unless otherwise noted) is measured and the solubility is calculated based on the calibration curve.
Data set [3] in a line: 26 week stability of pravastatin salts suspended in E463808 omega-3 oil (HPLC). The data set is classed as physicochemical. The procedure:
Several salts of pravastatin were suspended in E463808 omega-3 oil and placed in either capped glass vials or sealed gelatin capsules. […] were used at 25 degrees C. while glass vials were used at 25, 40, and 60 degrees C. The suspensions of salt in oil were measured periodically for 26 weeks. HPLC was used to measure degradation of the pravastatin salts.

A short description of data set [4]: Pharmacokinetic two-way cross-over study in fasted beagle dogs (plasma pravastatin, LC/MS). The data set is classed as in vivo. The procedure: A two-way cross-over experiment was completed with six fasted beagle dogs to compare the pharmacokinetic parameters of pravastatin calcium salt with pravastatin sodium salt. The pravastatin sodium salt was acquired from PRAVACHOL® tablets. The pravastatin calcium salt was acquired via the method described in Example 1. The pravastatin calcium salt dosage form administered to the dogs consisted of 11.0 mg pravastatin calcium salt (equivalent to 10 mg pravastatin acid) and 744 mg Ropufa 75 ethyl esters of omega-3 fatty acids in a soft gelatin capsule shell. […] The mean dose of pravastatin free acid administered as PRAVACHOL® was 0.85 mg/kg and the mean dose of pravastatin free acid administered as pravastatin calcium salt was 0.95 mg/kg. Following administration, plasma samples were collected pre-dose and then at 0.25, 0.5, 1, 1.5, 2, 3, 4, 6, 8, 12, and 24 hours post-dose. Plasma samples were analyzed for pravastatin concentration using an LC/MS method.

A short description of data set [5]: Dynamic Vapor Sorption (DVS) moisture sorption isotherm. The data set is classed as physicochemical. The source says: Dynamic Vapor Sorption (DVS) data were also acquired on both the pravastatin calcium salt and the pravastatin sodium salt. […] This is consistent with an amorphous compound. Hysteresis is observed in the desorption cycle. […] Significant hysteresis is observed in the desorption cycle.

Data set [6] is classed as physicochemical. The protocol:
Several salts of pravastatin were suspended in 87:13 E681010:ethanol mixtures and placed in capped glass vials. Each suspension of pravastatin calcium, pravastatin magnesium, pravastatin sodium, or pravastatin zinc in 87:13 E681010:ethanol was measured periodically for 12 weeks. HPLC was used to measure degradation of the pravastatin salts.

Setting [7] is: suspension in E463808, capped glass vials, 8 weeks.
[8] abbreviates: beagle, dog, plasma, po, 0.95 mg/kg, Mean of six fasted beagle dogs, mean dose as free acid 0.95 mg/kg (calcium salt softgel), 0.85 mg/kg (PRAVACHOL).
[9] abbreviates: individual dogs, oral, fasted, mean dose as free acid 0.95 mg/kg (calcium salt softgel), 0.85 mg/kg (PRAVACHOL), calcium salt.

Regarding `CC(C)n1c(/C=C/C(O)CC(O)CC(=O)O)c(-c2ccc(F)cc2)c2ccccc21` (centres unmarked) [fluvastatin calcium salt], the aqueous solubility entry in data set [1] was “less than or equal to 0.275 mg/mL”.

For `CC[C@H](C)C(=O)O[C@H]1C[C@H](O)C=C2C=C[C@H](C)[C@H](CC[C@@H](O)C[C@@H](O)CC(=O)O)[C@H]21` [pravastatin calcium salt], the aqueous solubility in data set [2] (listed as calcium salt of pravastatin, calcium salt) was 17 to 20 mg/mL. Also, in data set [3] (summary statement referring to the Exemplification), the “stability in suspension of omega-3 oil relative to other pravastatin salts (sodium, potassium)” value is on record as “higher stability”. For the same compound, in data set [3] (setting [7]), the “degradation at 60 degrees C. vs potassium salt at 40 degrees C.” value is “significantly less degradation” and the “degradation at 60 degrees C. vs sodium salt at 40 degrees C.” value is listed as “similar”. Also, the “degradation vs sodium or potassium salt at a given temperature” value in data set [3] (suspension in E463808, capped glass vials, 40 and 60 degrees C.) is on record as “degrade substantially less”. Further, the “degradation compared with all salts in gelcap or vial” value in data set [3] (suspension in E463808, vial, 25 degrees C., 26 weeks) is “degrade the least”. The bioavailability in data set [4] (beagle, dog, plasma, po, 0.95 mg/kg, Mean of six dogs, relative to PRAVACHOL AUCinf, dose-normalized) is 121%. Further, in data set [4] (setting [8]), the AUC(0-inf) stood at 441 ng·h/mL, the AUC(0-t) stood at 432 ng·h/mL and the half-life is 2.35 h. Further, the Cmax in data set [4] (beagle, dog, plasma, po, 0.95 mg/kg, Mean of six fasted beagle dogs, oral, mean dose as free acid 0.95 mg/kg (calcium salt softgel), 0.85 mg/kg (PRAVACHOL), read-out: Cmax) amounted to 141 ng/mL. In addition, the Tmax in data set [4] (beagle, dog, plasma, po, 0.95 mg/kg, Mean of six fasted beagle dogs, oral, mean dose as free acid 0.95 mg/kg (calcium salt softgel), 0.85 mg/kg (PRAVACHOL), read-out: Tmax) worked out at 0.71 h. In addition, the AUC(0-t) in data set [4] (beagle, dog, plasma, po, 0.95 mg/kg, individual dogs, fasted, mean dose as free acid 0.95 mg/kg (calcium salt in Ropufa 75 omega-3 ethyl esters softgel), 0.85 mg/kg (PRAVACHOL)) worked out at 488 ng·h/mL. Moreover, the AUC(0-inf) in data set [4] (beagle, dog, plasma, po, 0.95 mg/kg, individual dogs, fasted, mean dose as free acid 0.95 mg/kg (calcium salt softgel), 0.85 mg/kg (PRAVACHOL)) worked out at 494 ng·h/mL. In addition, in data set [4] (fasted beagle dogs, oral), the “AUC values compared with the PRAVACHOL tablet” value was “slightly higher”, the “Cmax values compared with the PRAVACHOL tablet” value is reported as “slightly higher” and the “Tmax values compared between the formulations” value is “comparable”. Besides, the “AUC0–t” value in data set [4] (individual dogs, oral, fasted, mean dose as free acid 0.95 mg/kg (calcium salt in Ropufa 75 omega-3 ethyl esters softgel), 0.85 mg/kg (PRAVACHOL), calcium salt) is 438.55 ng·h/mL and 505.30 ng·h/mL and 380.68 ng·h/mL and 512.94 ng·h/mL and 264.11 ng·h/mL. In data set [4] (setting [9]), the AUCinf is 453.69 ng·h/mL and 515.14 ng·h/mL and 396.20 ng·h/mL and 518.11 ng·h/mL and 268.01 ng·h/mL; the Cmax is 182 ng/mL and 131 ng/mL and 166 ng/mL and 99.0 ng/mL and 87.2 ng/mL; the Tmax is 1 h and 0.5 h and 0.25 h; the t1/2 was 1.67 h and 2.5 h and 1.89 h and 2.76 h and 3.44 h and 1.85 h.

Turning to `CCC(C)C(=O)OC1CC(O)C=C2C=CC(C)C(CCC(O)CC(O)CC(=O)[O-])C21.CCC(C)C(=O)OC1CC(O)C=C2C=CC(C)C(CCC(O)CC(O)CC(=O)[O-])C21.[Mg+2]` (centres unmarked) [pravastatin magnesium salt (habit A), pravastatin magnesium salt], the aqueous solubility in data set [2] came to 14.22 mg/mL.

Consider `CCC(C)C(=O)OC1CC(O)C=C2C=CC(C)C(CCC(O)CC(O)CC(=O)[O-])C21.CCC(C)C(=O)OC1CC(O)C=C2C=CC(C)C(CCC(O)CC(O)CC(=O)[O-])C21.[Mg+2]` (centres unmarked) [pravastatin magnesium salt (habit B), pravastatin magnesium salt], for which the aqueous solubility in data set [2] is 16.12 mg/mL.

As to `CC[C@H](C)C(=O)O[C@H]1C[C@H](O)C=C2C=C[C@H](C)[C@H](CC[C@@H](O)C[C@@H](O)CC(=O)O)[C@H]21` [pravastatin sodium salt], the “hygroscopicity compared with the calcium salt” value in data set [5] (DVS) is recorded as “greater hygroscopicity”. Moreover, the “relative humidity above which adsorbed water increased significantly” value in data set [5] (DVS sorp-desorp cycle) is on record as “about 54 percent RH”. Moreover, in data set [2] (listed as sodium salt of pravastatin, sodium salt), the aqueous solubility entry is on record as “greater than 300 mg/mL”.

As to `CC[C@H](C)C(=O)O[C@H]1C[C@H](O)C=C2C=C[C@H](C)[C@H](CC[C@@H](O)C[C@@H](O)CC(=O)O)[C@H]21.[Zn]` [pravastatin zinc salt], in data set [5] (25 degrees C.), the “moisture sorption behaviour (DVS isotherm)” value is “gradual increase in moisture sorption”. In data set [6], the “degradation to the lactone (percent lactone)” value was “about 3%”; the “stability in suspension of omega-3 oil and an alcohol relative to other pravastatin salts” value is on record as “higher stability”.

With pravastatin magnesium salt, the aqueous solubility in data set [2] came out at 17.24 mg/mL.

A word on the aqueous solubility: it is how much of the substance goes into solution per volume. For orientation: AUC(0-inf) means total exposure, with the tail of the curve extrapolated. The AUC(0-t) is exposure summed from dosing to a finite time, without extrapolation to infinity. What is called half-life is the time in which the quantity being followed falls by half. A word on the Cmax: it is the maximum level reached in the sampled fluid or tissue. By Tmax is commonly meant the time from dosing to the highest level.
